Assay results taken from PubChem BioAssay AID588764 (Broad Institute, 2011).
Results filed as inconclusive are left out. Calls of active or inactive are those of the source. The rule behind the calls is not given here.

Target: Histone acetyltransferase RTT109 (Candida albicans (strain SC5314 / ATCC MYA-2876)) (UniProt Q5AAJ8)
Test: C. albicans Rtt109 HAT inhibition curves – biochemical, cherry-picked hits, plate reader, dose response (AID 588764)
Conditions: Rtt109/Vps75 HAT activity; for activity change, negative = inhibition: at 19.5 µM (top of the series)

Chain of Histone acetyltransferase RTT109 (Candida albicans (strain SC5314 / ATCC MYA-2876)) (Q5AAJ8 whole entry, looked up): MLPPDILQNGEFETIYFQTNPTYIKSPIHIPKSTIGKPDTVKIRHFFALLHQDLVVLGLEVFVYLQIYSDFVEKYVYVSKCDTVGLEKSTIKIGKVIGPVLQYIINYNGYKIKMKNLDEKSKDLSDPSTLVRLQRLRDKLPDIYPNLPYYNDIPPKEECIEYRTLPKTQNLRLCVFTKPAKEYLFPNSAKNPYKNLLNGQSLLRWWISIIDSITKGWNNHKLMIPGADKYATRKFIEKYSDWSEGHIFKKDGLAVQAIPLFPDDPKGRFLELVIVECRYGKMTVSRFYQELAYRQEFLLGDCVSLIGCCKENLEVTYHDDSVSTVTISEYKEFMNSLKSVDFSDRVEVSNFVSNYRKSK

Row | Compound | activity change, negative = inhibition | AC50
1 | CC(C)c1nc(SCC(=O)Nc2ccc(N3CCOCC3)cc2)c2ccccc2n1 | inactive | 
2 | CC(=O)Nc1ccc(NC(=O)c2nc(S(=O)(=O)Cc3ccccc3)ncc2Cl)cc1 |  | 6.3 µM
3 | Cc1ccc(NC(=S)N(CCCN2CCCC2)Cc2cccn2Cc2ccc(Cl)cc2)cc1C | inactive | 
4 | COc1ccc(-[n+]2c(C)cc(/C=C3\Sc4ccccc4N3C)cc2C)cc1 | inactive | 
5 | COc1ccc2nc(NC(=O)CN3C(=O)NC4(CCCCC4)C3=O)sc2c1 | inactive | 
6 | Cc1ccccc1N1C(S)=C(C#N)C(=O)NC12CCCCC2 | inactive | 
7 | Cc1cccn2cc(CCNS(=O)(=O)c3cccs3)nc12 | inactive | 
8 | CC(=O)Nc1ccc(OCC(=O)NCc2ccccc2)cc1 | inactive | 
9 | O=C(CSc1n[nH]c(-c2ccccc2Cl)n1)NC1CCCCC1 | inactive | 
10 | O=C(COC(=O)Cc1ccccc1[N+](=O)[O-])Nc1nnc(-c2ccccc2)o1 | inactive | 
11 | CCOC(=O)N1CCN(Cc2c(O)ccc3ccccc23)CC1 |  | 18.8 µM
12 | Cc1c(C(=O)N2CCC[C@H]2CO)oc2c(F)cccc12 | inactive | 
13 | C#CCOCCOCCOCCNc1nc(N2CCN(C(=O)[C@H](CCCCN)n3cc([C@@H](N)CC(C)C)nn3)CC2)nc(N2CCN(C(=O)[C@H](CCCCN)n3cc([C@@H](N)CC(C)C)nn3)CC2)n1 | inactive | 
14 | O=C1Cc2ccccc2Sc2c(OCCN3CCCCC3)cccc21 | inactive | 
15 | CCCCS(=O)(=O)c1sc2nc(C)cc(C)c2c1N | inactive | 
16 | Cn1c(SCC(=O)NC2CCCCC2)nnc1-c1cccnc1 | inactive | 
17 | Cc1ccccc1-n1sc2cc(F)ccc2c1=O |  | 5.9 µM
18 | CN(C)c1ccc(/C=C/c2ccc3c4ccccc4ccc3[n+]2-c2ccccc2)cc1 | inactive | 
19 | Cc1ccc(S(=O)(=O)c2nc(-c3ccccc3)oc2N2CCC(C(N)=O)CC2)cc1 | inactive | 
20 | COc1ccccc1-n1cnnc1SCC(=O)NC1CCCC1 | inactive | 
21 | O=C(C/C=N/OCc1ccc(Cl)cc1Cl)c1ccccc1 | inactive | 
22 | CC(=O)N(c1ccc2oc(=O)sc2c1)S(=O)(=O)c1cccc2cccnc12 | inactive | 
23 | Cc1ccc(NC(=O)Cn2sc3nc(C)cc(C)c3c2=O)c(Cl)c1 |  | 0.831 µM
24 | N#CC1=C(S)N(c2ccccc2)C(c2cccs2)NC1=O (stereo not given) |  | 11.3 µM
25 | CCOC(=O)C(=Cc1cc(=O)c(OC)co1)C(=O)OCC |  | 10.7 µM

Row | Compound | activity change, negative = inhibition | AC50
26 | CCC(C)NC(=O)C1CCN(S(=O)(=O)c2cc([N+](=O)[O-])ccc2Cl)CC1 (stereo not given) | inactive | 
27 | COc1ccc(C(=O)NNC(=O)c2ccncc2)cc1 | inactive | 
28 | COc1ccc(-n2sc3ccc(F)cc3c2=O)cc1 |  | 6 µM
29 | COc1cccc(C(=O)NCc2nnc(SCC(=O)Nc3nccs3)n2-c2cccc(C)c2)c1 | inactive | 
30 | COc1cc(/C=N/N=C(N)N)ccc1OCc1ccccc1Cl | inactive | 
31 | CC1CCC2(CC1)NC(=S)N(c1ccccc1)N2 (stereo not given) | inactive | 
32 | NNc1n[nH]c(=S)n1N | inactive | 
33 | CC1(C)C2CCC1(C)C(OCC[N+](C)(C)CC(=O)OC1CCCCC1)C2 (stereo not given) | inactive | 
34 | N#C/C(=C\c1ccncc1)c1nc2c(s1)CCCC2 | inactive | 
35 | COc1ccc(S(=O)(=O)N2CCN(c3ccccn3)CC2)cc1OC | inactive | 
36 | CCCC1(c2ccccc2)NC(=O)N(CC(=O)N(C)Cc2c(F)cccc2Cl)C1=O (stereo not given) |  | 2.79 µM
37 | COc1cccc(NC(=O)CSc2nc3c(sc4ccccc43)c(=O)n2CCN(C)C)c1 | inactive | 
38 | O=C(NCc1ccc2c(c1)OCO2)c1ccc(CS(=O)Cc2cccc(Cl)c2)o1 (stereo not given) | inactive | 
39 | CCn1c(SCC(=O)Nc2ccc(Br)cc2)nc2sc3c(c2c1=O)CCN(C)C3 | inactive | 
40 | COc1ccccc1NS(=O)(=O)c1ccc(C)c(C(=O)NCC2(N(C)C)CCCCC2)c1 | inactive | 
41 | Cc1ccc2nc(N(CCCN(C)C)C(=O)c3sc4ccccc4c3Cl)sc2c1 | inactive | 
42 | Nc1c(C(=O)c2ccccc2)oc2ccc([N+](=O)[O-])cc12 | inactive | 
43 | COc1ccccc1NC1=C(Cl)C(=O)N(C2CCCCC2)C1=O | inactive | 
44 | COc1cc(-c2nnc(SCC(=O)OC3CCCCC3)o2)cc(OC)c1OC | inactive | 
45 | O=C(Nc1ccccc1Cl)c1cc(S(=O)(=O)N2CCCCC2)ccc1N1CCOCC1 | inactive | 
46 | CCOC(=O)c1ccc(N=C2C(=S)N(c3ccc(C(=O)OCC)cc3)C(=N)N2/N=C/c2ccccc2)cc1 | inactive | 
47 | Clc1nc(Nc2ccccc2)nc(Nc2ccccc2)n1 | inactive | 
48 | O=C(C1CCOCC1)N1CCCC(N2CCN(c3cccc(C(F)(F)F)c3)CC2)C1 (stereo not given) | inactive | 
49 | Cc1ccc2c(c1)sc(C)[n+]2CCCS(=O)(=O)[O-] | inactive | 
50 | CSc1c(SCc2ccccc2)cnn(-c2ccccc2)c1=O | inactive | 

Row | Compound | activity change, negative = inhibition | AC50
51 | Cc1cc(OCc2ccc(C(=O)NN=C3CCCC3)cc2)ccc1Cl | inactive | 
52 | Oc1cc(O)c(CN2CCOCC2)cc1CN1CCOCC1 |  | 19.5 µM
53 | CCOC(=O)c1c(C)n(-c2ccc(C)cc2)c2ccc(OCC(O)CNCCCO)cc12 (stereo not given) | inactive | 
54 | N#Cc1c(Nc2ccccc2Cl)s[nH]c1=O |  | 4.21 µM
55 | O=C(O)c1cccc2c1NC(C(=O)O)C1CC(Sc3ccccc3[N+](=O)[O-])C(Cl)C21 (stereo not given) | inactive | 
56 | CCOc1ccccc1N1CCN(C(=O)c2ccncc2)CC1 | inactive | 
57 | O=C(CSc1nnc2ccccn12)NNC(=O)c1cccc(Cl)c1 | inactive | 
58 | COc1cc(NC(=O)C(Cc2ccccc2)n2cccc2)cc(OC)c1 (stereo not given) | inactive | 
59 | COc1cc(OC)c(NC(=O)CN(C)S(=O)(=O)c2ccc(-c3ccc(=O)[nH]n3)s2)cc1Cl | inactive | 
60 | COc1ccc(CNC(=O)C2(c3ccc(Cl)cc3)CC2)cc1 | inactive | 
61 | CCc1cccc(NC(=O)C2CCCN(c3ncnc4c3nc3n4CCCCC3)C2)c1 (stereo not given) | inactive | 
62 | O=C(Nc1ccc(Cl)c(S(=O)(=O)N2CCCCC2)c1)C1=COCCO1 | inactive | 
63 | Cc1nn(C)cc1[C@@H]1C[C@H]2CN(Cc3cccc(Cl)c3)C(=O)[C@]23CCCN13 | inactive | 
64 | Cc1nc(CC(C)C)cc(C(=O)N2CCCC(CNS(=O)(=O)c3cccs3)C2)n1 (stereo not given) | inactive | 
65 | Cc1ccccc1/C=C/C(=O)NCC(=O)N1CCC(N(C)C2CCCCC2C)CC1 (stereo not given) | inactive | 
66 | COCCNC(=O)C(c1ccc(O)cc1)N(Cc1ccccc1)C(=O)CCC(=O)Nc1ccccn1 (stereo not given) | inactive | 
67 | C#CCOCCOCCOCCNc1nc(N2CCN(C(=O)C([C@@H](C)O)n3cc([C@@H](N)CCCCN)nn3)CC2)nc(N2CCN(C(=O)C([C@@H](C)O)n3cc([C@@H](N)CCCCN)nn3)CC2)n1 (stereo not given in full) | inactive | 
68 | CCOC(=O)C1CCN(S(=O)(=O)c2ccc3c(c2)CC(C)N3C(=O)C2CCC2)CC1 (stereo not given) | inactive | 
69 | CC(C)c1ccc(NC(=O)NC(C)c2ccc3c(c2)OCO3)cc1 (stereo not given) | inactive | 
70 | NCC12CC3CC(C1)CC(c1ccc(Cl)cc1)(C3)C2 | inactive | 
71 | CCOC(=O)C1CCCN(c2cc(=O)n(C3CCCCC3)c(=O)[nH]2)C1 (stereo not given) | inactive | 
72 | Cc1cc(C)c2c(=O)n(CC(=O)Nc3cccc(Cl)c3C)sc2n1 |  | 1.98 µM
73 | O=C(CSc1nnc(Cc2cccs2)n1C1CCCCC1)N1CCN(C(=O)c2ccco2)CC1 | inactive | 
74 | CCOC(=O)/C=C/C(=O)Nc1cccc([N+](=O)[O-])c1 |  | 5.91 µM
75 | O=S(=O)(Nc1cc(Sc2ncn[nH]2)c(O)c2ccccc12)c1ccccc1 |  | 4.1 µM
